Results from the supplement of paper PMC13207355.

Key:
Details in all cases: exposure time: 72 h
[1] = system: E28 (patient-derived glioblastoma stem cells of classical subtype); experiment: phenotypic distance (Euclidean, principal components) from DMSO controls (arbitrary units); higher = stronger morphological change
[2] = system: FT3469 (normal neural stem cell line); experiment: as above
[3] = system: E13 (patient-derived glioblastoma stem cells of classical subtype); experiment: as above
[4] = system: E34 (patient-derived glioblastoma stem cells of proneural subtype); experiment: as above
[5] = system: E57 (patient-derived glioblastoma stem cells of mesenchymal subtype); experiment: as above
[6] = system: E21 (patient-derived glioblastoma stem cells of mesenchymal subtype); experiment: as above
[7] = system: E31 (patient-derived glioblastoma stem cells of proneural subtype); experiment: as above
[8] = system: E28; experiment: surviving fraction (nuclei count normalised to DMSO); higher = more cells surviving (less toxic)
[9] = system: FT3469; experiment: as above
[10] = system: E13; experiment: as above
[11] = system: E34; experiment: as above
[12] = system: E57; experiment: as above
[13] = system: E21; experiment: as above
[14] = system: E31; experiment: as above
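Wherever phenotypic distance (Euclidean, principal components) from DMSO controls is given: cell Painting imaging in 384-well plates, CellProfiler features reduced to at least 20 principal components, Euclidean distance versus same-plate DMSO vehicle wells (0.1% v/v), median over six images per well.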
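Wherever surviving fraction (nuclei count normalised to DMSO) is given: nuclei counted by high-content imaging of Hoechst-stained cells in laminin-coated 384-well plates, relative to 0.1% DMSO vehicle wells, with staurosporine as cell-death control.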

CC1CNc2c(cccc2S(=O)(=O)N[C@@H](CCCNC(=N)N)C(=O)N2CC[C@@H](C)C[C@@H]2C(=O)O)C1 (stereo partly drawn) [Argatroban]
Details | phenotypic distance | surviving fraction
[1], 4.1 nM | 0.894 | –
[1], 12.3 nM | 0.602 | –
[1], 37 nM | 0.844 | –
[1], 111.1 nM | 0.794 | –
[1], 333.3 nM | 0.356 | –
[1], 1000 nM | 0.549 | –
[1], 3000 nM | 0.893 | –
[2], 4.1 nM | 3.82 | –
[2], 12.3 nM | 1.39 | –
[2], 37 nM | 0.709 | –
[2], 111.1 nM | 0.753 | –
[2], 333.3 nM | 0.744 | –
[2], 1000 nM | 0.391 | –
[2], 3000 nM | 1.07 | –
[3], 4.1 nM | 0.936 | –
[3], 12.3 nM | 1.03 | –
[3], 37 nM | 0.706 | –
[3], 111.1 nM | 0.818 | –
[3], 333.3 nM | 0.637 | –
[3], 1000 nM | 0.667 | –
[3], 3000 nM | 0.543 | –
[4], 4.1 nM | 0.682 | –
[4], 12.3 nM | 0.667 | –
[4], 37 nM | 0.842 | –
[4], 111.1 nM | 0.535 | –
[4], 333.3 nM | 0.743 | –
[4], 1000 nM | 1.04 | –
[4], 3000 nM | 1.26 | –
[5], 4.1 nM | 0.489 | –
[5], 12.3 nM | 0.826 | –
[5], 37 nM | 0.498 | –
[5], 111.1 nM | 0.438 | –
[5], 333.3 nM | 0.495 | –
[5], 1000 nM | 0.711 | –
[5], 3000 nM | 0.963 | –
[6], 4.1 nM | 1.43 | –
[6], 12.3 nM | 0.727 | –
[6], 37 nM | 1.18 | –
[6], 111.1 nM | 0.876 | –
[6], 333.3 nM | 1.26 | –
[6], 1000 nM | 1.01 | –
[6], 3000 nM | 1.26 | –
[7], 4.1 nM | 0.911 | –
[7], 12.3 nM | 0.664 | –
[7], 37 nM | 0.863 | –
[7], 111.1 nM | 0.601 | –
[7], 333.3 nM | 2.25 | –
[7], 1000 nM | 0.919 | –
[7], 3000 nM | 0.822 | –
[8], 4.1 nM | – | 0.975
[8], 12.3 nM | – | 0.963
[8], 37 nM | – | 0.877
[8], 111.1 nM | – | 1.3
[8], 333.3 nM | – | 1.01
[8], 1000 nM | – | 1.14
[8], 3000 nM | – | 1.16
[9], 4.1 nM | – | 0.74
[9], 12.3 nM | – | 0.878
[9], 37 nM | – | 0.961
[9], 111.1 nM | – | 0.906
[9], 333.3 nM | – | 1.09
[9], 1000 nM | – | 0.99
[9], 3000 nM | – | 0.886
[10], 4.1 nM | – | 0.887
[10], 12.3 nM | – | 0.726
[10], 37 nM | – | 1.06
[10], 111.1 nM | – | 0.787
[10], 333.3 nM | – | 1.03
[10], 1000 nM | – | 0.955
[10], 3000 nM | – | 1.04
[11], 4.1 nM | – | 1.04
[11], 12.3 nM | – | 1.04
[11], 37 nM | – | 0.976
[11], 111.1 nM | – | 0.935
[11], 333.3 nM | – | 1.05
[11], 1000 nM | – | 1.13
[11], 3000 nM | – | 0.923
[12], 4.1 nM | – | 1.01
[12], 12.3 nM | – | 1.03
[12], 37 nM | – | 0.918
[12], 111.1 nM | – | 1.04
[12], 333.3 nM | – | 1.04
[12], 1000 nM | – | 1.01
[12], 3000 nM | – | 0.888
[13], 4.1 nM | – | 0.935
[13], 12.3 nM | – | 0.953
[13], 37 nM | – | 0.963
[13], 111.1 nM | – | 0.778
[13], 333.3 nM | – | 1.07
[13], 1000 nM | – | 1.08
[13], 3000 nM | – | 1.11
[14], 4.1 nM | – | 1.08
[14], 12.3 nM | – | 0.893
[14], 37 nM | – | 0.911
[14], 111.1 nM | – | 0.95
[14], 333.3 nM | – | 0.959
[14], 1000 nM | – | 1.04
[14], 3000 nM | – | 1.12
